Data as given in patent US9861116B2, “Pet food compositions for inducing a satiety response” (Hill's Pet Nutrition, Inc., priority 2010, dated 2018).

Tests used:
NPY = test: Affymetrix feline GeneChip gene expression analysis, NPY; format: cell-based; conditions: in two cell lines tested, amount tested 0.003 mg/mL, 0.03 mg/mL, treatment intensity/control intensity
Protocol: (§1) Gene expression was analyzed using proprietary feline GeneChip® Arrays prepared by Affymetrix, Inc., Santa Clara, Calif. 95051. Total RNA is reverse transcribed into cDNA. The cDNA is used to generate cRNA which is fragmented and used as probes for GeneChip hybridization. The gene chip is washed and the hybridization signal is measured with an Affymetrix laser scanner. The hybridization data is then validated and normalized for further analysis.
(§2) Materials: Affymetrix provided most of the reagents and kit. Other reagents listed in the Affymetrix Manual but not supplied in the kit were obtained separately. Refer to GeneChip Expression Analysis Technical Manual (701021 Rev.4) for the details.
(§3) Equipment. […]
(§4) Affymetrix gene chips are used to determine the effect of various test substances or ingredients on gene expression in four feline cell lines and appropriate controls. […] Gene expression was measured for the treatment cell lines and controls. The gene expression data was determined to be either “up” or “down”-regulated for any given treatment. The decision on whether a gene is “up” or “down” is based on the fold change, which is calculated as treatment intensity/control intensity for each individual probe.

LEPR = test: Affymetrix feline GeneChip gene expression analysis, LEPR; format: cell-based; conditions: in all cell lines tested (CCL-150, CCL-176, CRL-2032, CCL-94); amount tested 0.005 mg/mL, 0.05 mg/mL; treatment intensity/control intensity
Protocol: as §1, §2, §3, §4

## CC1=C(/C=C/C(C)=C/C=C/C(C)=C/C=C/C=C(C)/C=C/C=C(C)/C=C/C2=C(C)CCCC2(C)C)C(C)(C)CCC1 [Beta-Carotene]
NPY
  Fold Change (gene expression, NPY): −1.75 (in two cell

## Oc1ccc(C=Cc2cc(O)cc(O)c2)cc1 [Resveratrol]
LEPR
  Fold Change (gene expression, LEPR): 1.96 (in all cell lines
